Experimental findings from patent publication US20220267864A1, “THERAPEUTIC, DIAGNOSTIC, AND PROGNOSTIC METHODS FOR CANCER” (Genentech, Inc., priority 2014, published 2022) are described below.

Each structure is given as a SMILES string. A value given as a limit tells only on which side of the number the result lay.

The test system of the test is UMUC-10 cell line. Nature of the test: Cell viability (CELLTITER-GLO) of bladder cancer cell line treated with erlotinib. It counts as cell-based. The note with it: UMUC-10 bladder cancer cell line; 72 hours; 3-fold dilution series starting with a 5 uM dose; FIG. 11G. An excerpt: Bladder cancer cell lines were obtained from the American Type Culture Collection (ATCC, Manassas, Va.) or from the Deutsche Sammlung von Mikroorganismen and Zellkulturen GmbH (DSMZ, Braunschweig, Germany). Cell lines were archived at an early passage in the Genentech cell bank and authenticated either by a multiplex short tandem repeat assay or as previously described (O'Brien et al. Clin. Cancer Res. 16(14): 3670-3683, 2010). All cell lines were maintained in RPMI 1640 or DMEM supplemented with 10% fetal bovine serum (Sigma, St. Louis, Mo.), nonessential amino acids, and 2 mmol/L L-glutamine.
Details of its structure, selectivity, and biological properties have been previously described (Stamos et al. J. Biol. Chem. 277(48): 46265-46272, 2002). Cell viability studies were carried out as previously described (O'Brien et al. Clin. Cancer Res. 16(14): 3670-3683, 2010). Cells were plated in quadruplicate at a density of 2,500 cells per well in 384-well plates in normal growth medium and allowed to adhere overnight. […] Cell viability was measured 72 hours later using the […]-GLO® Luminescent Cell Viability Assay (Promega, Madison, Wis.). The percent viability at each concentration was calculated compared to the control treated only with DMSO.
In general terms: In ATP-based viability assays light output follows the ATP content of the culture.

As to `C#Cc1cccc(Nc2ncnc3cc(OCCOC)c(OCCOC)cc23)c1` [erlotinib, [6,7-bis(2-methoxyethoxy)-4-quinazolin-4-yl]-(3-ethynylphenyl) amine], the “growth inhibition (GI)” value was over 25%.
